We go through 1 compound from EP1134289A1, “METHOD FOR SCREENING CD14 AGONIST OR ANTAGONIST” (Takeda Chemical Industries, Ltd., priority 1998, dated 2000).

In this experiment the test system is CD14 expression. As to the kind of experiment: Induction of CD14 expression in THP-1 cells (FITC-labeled anti-CD14 antibody, flow cytometry). The format is cell-based, human. To be noted: VD3 about 100 nM, 3 days, 10,000 cells, 40 where no VD3 was added. The protocol:
Human monocytic THP-1 cells (purchased from Dainippon Pharmaceutical Co., Ltd.) were used as cells. As a culture medium, RPMI medium 1640 with L-glutamine (RPMI; GIBCO Co.), to which inactivated fetal calf serum (GIBCO Co.) at a concentration of 10% (v/v) and penicillin-streptomycin involving penicillin G sodium and streptomycin sulfate at a concentration of 100 U/ml and 100 µg/ml respectively, were added. For induction of CD14 expression, the cells were suspended in the medium at a content of about 3 × 10^5 cells/ml, to which 1,25-dihydroxyvitamin D3 (VD3; Roussel-UCLAF S.A.) was added at a final concentration of about 100 nM. The cells were incubated in the presence of 5% CO2 in a CO2 incubator MODEL 6200-03 (National Appliance Company) at 37°C for 3 days. The cultured cells were suspended into PBS at 10^6 cells/ml, to which FITC-labeled anti-human CD14 monoclonal antibody clone. UCHM1 (Ancell Co.) was added at a concentration of 1.6 µg/ml. The mixture was incubated at 4°C for 1 hour. The cells were washed 3 times with PBS by centrifugation (1,000 rpm, 3 minutes, 20°C), suspended into 1,000 µl of PBS, and filtered through a tube with a filter (FALCON2235 (Becton Dickinson Co.)). For the resulting cell suspension, the amount of the FITC-labeled anti-CD14 antibody bound to 10,000 cells was determined using a flow cytometer Cyto ACE-300 (JASCO Coporation). […]
(In general: A flow cytometer gives signals particle by particle.)

As to `C=C1/C(=C\C=C2/CCC[C@]3(C)[C@@H]([C@H](C)CCCC(C)(C)O)CC[C@@H]23)C[C@@H](O)C[C@@H]1O` [VD3, 1,25-dihydroxyvitamin D3], the “mean fluorescence intensity (MFI) of bound FITC-labeled anti-CD14 antibody” value is recorded as 114.9.
